Results: patent US5654315A, “Quinuclidine compounds useful in treating diseases” (Imperial Chemical Industries PLC, priority 1991, dated 1997)

Tests used:
Squalene synthase = target: T1, Squalene synthase (Rattus norvegicus, UniProt Q02769); assay: Inhibition of squalene synthase (formation of squalene from tritiated farnesyl pyrophosphate, rat liver microsomes); assay type: biochemical; settings: rat liver microsomal protein; 20 μM 1-[3H]-farnesyl pyrophosphate; 15 minutes; 37° C.; read-out: IC50 (concentration which results in a 50% inhibition of squalene production)
T1 construct: rat liver microsomal protein; from tissue; host or cells: rat liver microsomes
T1 sequence (Q02769 1-416): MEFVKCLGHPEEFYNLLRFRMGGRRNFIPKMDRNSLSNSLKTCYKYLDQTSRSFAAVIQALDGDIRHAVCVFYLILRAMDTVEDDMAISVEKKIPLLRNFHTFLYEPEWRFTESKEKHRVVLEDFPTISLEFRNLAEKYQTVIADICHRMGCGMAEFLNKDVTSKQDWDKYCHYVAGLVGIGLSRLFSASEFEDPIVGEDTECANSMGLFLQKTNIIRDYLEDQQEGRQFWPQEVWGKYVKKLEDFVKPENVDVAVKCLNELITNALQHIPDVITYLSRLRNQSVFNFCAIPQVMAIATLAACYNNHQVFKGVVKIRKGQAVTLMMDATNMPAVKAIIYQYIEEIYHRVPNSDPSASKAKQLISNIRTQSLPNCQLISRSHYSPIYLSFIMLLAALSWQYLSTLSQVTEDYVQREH
Protocol: (a) Inhibition of Squalene synthase
In this test, the ability of a compound to prevent the formation of squalene from a radioactive substrate (tritiated farnesyl pyrophosphate) is assessed.
The test compound is incubated at a concentration of 25 micromolar in 200 μl of a buffered solution containing potassium phosphate (50 mM), MgCl2 (4.95 mM), KF (9.9 mM), NADPH (0.9 mM) and rat liver microsomal protein (20 μg). Rat liver microsomes are prepared by the method described in published European Patent Application No. 324,421 and stored in liquid nitrogen prior to assay. Assay vials are kept at 37° C. throughout the incubation.
The reaction is started with the addition of the substrate (1-[^3 H]-farnesyl pyrophosphate), final concentration 20 μM, and stopped after 15 minutes reaction time with the addition of 50 μl of 4% KOH. The reaction products are separated from unreacted substrate after application to a C-18 octadecyl 1ccBond column (Analytichem Int product No. 617101). An aqueous fraction is eluted with 250 μl of 0.1M KOH. Squalene is then eluted with 1.0 ml 10% ethyl acetate in hexane and radioactivity determined. The difference in radioactivity in the presence and absence of the test compound is used to determine the level of inhibition. […] The IC50 can then be determined from a plot of percentage inhibition against concentration of test compound.

[1] = test system: de novo hepatic cholesterol synthesis; assay: Acute rat cholesterol synthesis assay (de novo hepatic cholesterol synthesis from 14C-acetate); assay type: in vivo; settings: female rats, oral gavage, ip or iv (route not given), 14C-acetate ip 1 hour after dosing
Protocol: (b) Acute rat cholesterol synthesis assay.
This is an acute in vivo test in the rat to measure de novo hepatic cholesterol synthesis from exogenously administered ^14 C-acetate.
Female rats (35-55 g) are housed in reverse lighting conditions (red light from 0200h-1400h) for a period of about 2 weeks prior to test. Animals are allowed free access to chow and drinking water throughout this period. At test, animals should weigh 125-150 g.
Test compounds may be administered by oral gavage, dissolved or suspended in 0.5% polysorbate, or by ip or iv dosing. Control animals receive vehicle alone. After 1 hour the rats are injected ip with 25 μCi [2-^14 C]-acetate (NEN DUPONT. specific activity, 45-60 mCi/mmol NEC-085H, or AMERSHAM specific activity, 50-60 mCi/mmol CFA 14) in a volume of 0.25 ml saline (100 μCi/ml). After a further hour, rats are terminally anaesthetised with halothane and a blood sample obtained from the abdominal vena cava.
1 ml of plasma is lyophilised and then saponified in 2 ml ethanolic KOH (1 part 33% KOH, 9 parts ethanol) at 75° C. for 2 hours. After addition of an equal quantity of water, non-saponifiable lipids are extracted with two 5 ml volumes of hexane. The hexane extracts are evaporated to dryness and the residues dissolved in ethanol to determine cholesterol specific radioactivity. EC50 values can be determined in the standard way.

SMILES | IC50 (Squalene synthase) | ED50 [1]
c1ccc(-c2ccc(CNC3CN4CCC3CC4)cc2)cc1 (centres unmarked) [Example 5, 3-[(biphenyl-4-ylmethyl)amino]quinuclidine] | 0.14 µM | 
Oc1ccc(-c2ccc(OCC3(O)CN4CCC3CC4)cc2)cc1 (centres unmarked) [Example 17, 3-(4'-hydroxybiphenyl-4-yloxymethyl)quinuclidin-3-ol] |  | 11 mg/kg
